Measurements: article PMC7916174, “Preliminary Study of a 1,5-Benzodiazepine-Derivative Labelled with Indium-111 for CCK-2 Receptor Targeting” (Molecules, 2021)
One block for each compound: values may come before it.

Legend:
CCK-2R = test system: CCK-2R; parameters: method as in PMID 24325469; conditions: cited from earlier work
[1] = Stability of the radiotracer in human blood; assay type: in vitro ADME; conditions: for Stability (%), amount of intact radiotracer: Human blood
Experimental: (§1) HPLC analyses on indium-111-labelled IP-001 were performed on an S1125 HPLC pump system, and the column used was an Acclaim 120 C18, 3 × 150 mm, 3 µm 120 Å pore size; flow: 0.6 mL/min; gradient: minutes 0–2 A: 70% B: 30%; minutes 2–12 B: 30% -> 95%; and minutes 12–15 B: 95% -> 30%, where A: H2O (0.1% TFA) and B: MeCN. Detection was carried out with an S3245 UV–Vis and an S3700 gamma detector system.
(§2) TLC plates used for the assessment of the preparative reactions were silica gel 60 […] (0.2 mm, Merck) with the eluents mentioned for the specific product in the following paragraphs. Column chromatography was carried out with silica gel 60 (0.063–0.100 mm, Merck), and elution was performed using the eluent described for the specific preparations. The radioactive incorporation and stability of [^111In]In-IP-001 were assessed on ITLC-SG plates, developed in a 1 M ammonium acetate/MeOH 1:1 v/v solution, by using a flatbed-imaging scanner (Cyclone, Perkin Elmer).
(§3) The stability of [^111In]In-IP-001 solutions (0.5 mL, 10 nmol, 18 MBq) was assessed by means of radio-TLC or RP-HPLC at various temperatures (4, 24, and 37 °C) and in the presence of different media up to 120 h after preparation. The studies were performed by incubating the radiotracer with (i) a 0.9% NaCl solution at a 9:1 ratio, (ii) a 0.1 M HEPES solution at a 9:1 ratio, (iii) a 0.1 M EDTA solution at 9:1 and 1:1 ratios, (iv) human serum (HS) at a 9:1 ratio, and (v) HB at a 1:1 ratio. After TLC analysis, samples incubated with HB were centrifuged at 3000 rpm for 10 min to precipitate blood cells, and 200 μL of a MeCN/H2O/TFA 50/45/5 v/v/v solution was added to 400 μL of the supernatant. After another centrifugation under the same conditions, the supernatant was discarded and the residual radioactivity due to the proteins bound fraction was measured in a dose calibrator. Lipophilicity calculation were performed in octanol–water with the shaking flask method, as already described elsewhere. All experiments were performed in triplicate.

[2] = Lipophilicity, octanol-water shaking flask method; assay type: physicochemical
Experimental: as §3

[3] = Stability of the radiotracer in NaCl 0.9%, HEPES and EDTA (radio-TLC / RP-HPLC); assay type: physicochemical
Experimental: as §1, §2, §3

A549 cells = assay: [111In]In-IP-001 cellular uptake; assay type: cell-based, human
Experimental: A549 epithelial lung cancer cells were seeded in 6-well plates (20,000/cm^2) and allowed to adhere overnight. The following day, the medium was removed and radiotracer uptake was studied by incubating 2 × 10^5 cells at 37 °C in 2 mL of culture medium added to 30 µL (ca. 2 MBq, 1.35 μg, 1 nmol) of [^111In]In-IP-001. Uptake was monitored at 2, 4, 8, and 24 h. At these time points, the medium was removed and cells were washed twice with 2 mL of ice-cold PBS. Finally, cells were detached with 2 mL of a 0.25% trypsin/EDTA solution at 37 °C and centrifuged to separate the supernatant from the cells pellet. The radioactivity associated with the pellets was measured in a γ-spectrometer and corrected for decay. All experiments were performed in triplicate.

[4] = Stability of the radiotracer in human serum; assay type: in vitro ADME; conditions: for Stability (%), amount of intact radiotracer: Human serum
Experimental: as §1, §2, §3

A549 xenograft tumors [5] = assay: Ex vivo biodistribution in A549 tumor-bearing mice; parameters: species or system BALB/c nude mice
Experimental: (§4) Homozygous female BALB/c nude J:NU (JAX stock number 007850) mice were purchased from Jackson Laboratories (Bar Harbor, ME, USA). Mice were 4 weeks old at arrival, and they were hosted in an IVC system (Smart Flow AHU, Tecniplast) with autoclaved rodent bedding hosting 3–4 mice per cage. Mice were fed with autoclaved rodent food and water ad libitum. The inoculation of A549 tumor cell line was performed by the subcutaneous injection of 5 × 10^6 cells/mouse in 100 uL of […] medium (RPMI added of 10% FBS, 1% penicillin-streptomycin, 1% glutamine) into the right shoulder. […] Inoculation was carried out at 5 weeks of age after one week in the facility for acclimatization purposes. Mice were monitored every 2–3 days by measuring weight and tumor dimensions with an electronic caliper. For this purpose, two perpendicular dimensions were noted and volumes of the tumors were calculated with the formula 0.5 × L × W^2, where L is the measurement of the longest axis and W is the measurement of the axis perpendicular to L, in millimeters.
Tumors were allowed to grow for about five weeks until they reached 0.5–1.0 cm of size in one dimension (i.e., around 50–250 mm^3 volume), and then mice were divided in two groups. The experimental group (n = 5) was intravenously injected (retro-orbital venous sinus) with 150 μL of a [^111]In-IP-001 solution (2.06 nmol, 7.4MBq), while the blocked group (n = 5) was injected with 150 μL of a [^111]In-IP-001 solution added to a 50-fold molar excess of cold ligand. All injections were performed with the animals under isoflurane anesthesia (1–3%), using 30G ultra-fine insulin syringes. Real-time, live, and fast dynamic screening studies were performed right after injection and on selected time points post-injection, on a dedicated desktop, mouse-sized, planar scintigraphic system (γ-eye^TM by BIOEMTECH, Athens, Greece). The system supports fusion with a digital mouse photograph for anatomical co-registration. The main detector is based on two position-sensitive photomultiplier tubes coupled to a CsI(Na) pixelated scintillator and a medium-energy lead collimator with parallel hexagonal holes that supports a range of SPECT isotopes. The system’s field of view is 5 × 10 cm^2, with a spatial resolution of ~2 mm. […] This allowed for a fast test, right after injection, to check whether the injection was successful, and on later time points to quickly evaluate the bio-kinetics of the tracer. Tomographic SPECT/CT imaging was performed with y-CUBE^TM and x-CUBE^TM (Molecubes, Belgium), respectively, at the same selected time points post-injection. The SPECT system provides a spatial resolution of 0.6 mm for mouse imaging and of 1.5 mm for rat imaging. The CT system performs a spiral scan, it can provide images with 100 um resolution, and images were acquired with 50 kVp. Mouse imaging was performed by keeping the mice anaesthetized under isoflurane and under a constant temperature of 37 °C. SPECT scans were acquired with a 45 min duration, and each SPECT scan was followed by a high-resolution CT scan for co-registration purposes. The SPECT data were reconstructed through a maximum-likelihood expectation-maximization (MLEM) algorithm, with a 500 μm voxel size and […]. CT data were reconstructed through an iterative image space reconstruction algorithm (ISRA) algorithm with a 100 μm voxel size. Tomographic images are presented through maximum intensity projection (MIP) view). The experimental group was imaged at 2, 4, 8, and 24 h post-injection with both imaging systems, while the blocked group was imaged at 4 and 24 h.
(§5) For biodistribution studies, the injections were performed as described above, and 3 mice for both groups were sacrificed at 4 and 24 h post injection using 2% isoflurane. Main organs and tissues were removed, weighed, and counted together with blood samples, muscle, and urine by a γ-counter system (Cobra II from Packard, Canberra, ME, USA). […]

A549 xenograft tumors [6] = assay: Blocking experiment with 50-fold molar excess of unlabeled IP-001, ex vivo biodistribution; assay type: in vivo, BALB/c nude mice
Experimental: as §4
Tumors were allowed to grow for about five weeks until they reached 0.5–1.0 cm of size in one dimension (i.e., around 50–250 mm^3 volume), and then mice were divided in two groups. The experimental group (n = 5) was intravenously injected (retro-orbital venous sinus) with 150 μL of a [^111]In-IP-001 solution (2.06 nmol, 7.4MBq), while the blocked group (n = 5) was injected with 150 μL of a [^111]In-IP-001 solution added to a 50-fold molar excess of cold ligand. All injections were performed with the animals under isoflurane anesthesia (1–3%), using 30G ultra-fine insulin syringes. […]
as §5

Structure (SMILES): CC(C)(C)C(=O)CN1C(=O)[C@H](NC(=O)Nc2cccc(C(=O)O)c2)CN(C2CCCCC2)c2ccccc21 [Z-360, Nastorazepide]
- selectivity relative to CCK-1R (CCK-2R; CCK-2R versus CCK-1R): 672
- Kd (CCK-2R; CCK-2R): 0.47 nM

- Stability (%), amount of intact radiotracer ([1]; 4 h): 98 ± 2%
- Stability (%), amount of intact radiotracer ([1]; 8 h): 95 ± 1%
- Stability (%), amount of intact radiotracer ([1]; 24 h): 95 ± 2%
- Stability (%), amount of intact radiotracer ([1]; 72 h): 93 ± 1%
- Stability (%), amount of intact radiotracer ([1]; 120 h): 93 ± 2%
- percentage of intact compound ([1]; human blood (HB), after 48 h): higher than 95%
- partition coefficient (LogP) [2]: 0.45
- Stability (%), amount of intact radiotracer ([3]; EDTA (0.1 M), 4 h): 98 ± 1%
- Stability (%), amount of intact radiotracer ([3]; EDTA (0.1 M), 8 h): 98 ± 1%
- Stability (%), amount of intact radiotracer ([3]; EDTA (0.1 M), 24 h): 96 ± 2%
- Stability (%), amount of intact radiotracer ([3]; EDTA (0.1 M), 72 h): 96 ± 3%
- Stability (%), amount of intact radiotracer ([3]; HEPES (0.1 M), 4 h): 98 ± 2%
- Stability (%), amount of intact radiotracer ([3]; HEPES (0.1 M), 8 h): 97 ± 3%
- Stability (%), amount of intact radiotracer ([3]; HEPES (0.1 M), 24 h): 97 ± 3%
- Stability (%), amount of intact radiotracer ([3]; HEPES (0.1 M), 72 h): 96 ± 1%
- Stability (%), amount of intact radiotracer ([3]; NaCl 0.9%, 4 h): 98 ± 2%
- Stability (%), amount of intact radiotracer ([3]; NaCl 0.9%, 8 h): 98 ± 2%
- Stability (%), amount of intact radiotracer ([3]; NaCl 0.9%, 24 h): 97 ± 2%
- Stability (%), amount of intact radiotracer ([3]; NaCl 0.9%, 72 h): 97 ± 2%
- Stability (%), amount of intact radiotracer ([4]; 4 h): 98 ± 2%
- Stability (%), amount of intact radiotracer ([4]; 8 h): 96 ± 3%
- Stability (%), amount of intact radiotracer ([4]; 24 h): 95 ± 3%
- Stability (%), amount of intact radiotracer ([4]; 72 h): 94 ± 2%
- Stability (%), amount of intact radiotracer ([4]; 120 h): 93 ± 1%
- percentage of intact compound ([4]; human serum, after 48 h): higher than 95%
- spleen uptake (A549 xenograft tumors [5]; 4 h post injection (abstract)): 3.88 ± 0.36 % ID/cc
- tumor uptake (A549 xenograft tumors [5]; 4 h post injection, i.v., n = 3): 2.36 ± 0.26 % IA/g
- blood uptake (A549 xenograft tumors [5]; 4 h post injection, n = 3): 4.21 ± 0.40 % IA/g
- intestines uptake (A549 xenograft tumors [5]; 4 h post injection, n = 3): 2.39 ± 0.28 % IA/g
- kidneys uptake (A549 xenograft tumors [5]; 4 h post injection, n = 3): 6.99 ± 0.97 % IA/g
- liver uptake (A549 xenograft tumors [5]; 4 h post injection, n = 3): 8.25 ± 2.21 % IA/g
- lungs uptake (A549 xenograft tumors [5]; 4 h post injection, n = 3): 2.82 ± 0.21 % IA/g
- pancreas uptake (A549 xenograft tumors [5]; 4 h post injection, n = 3): 2.03 ± 0.16 % IA/g
- spleen uptake (A549 xenograft tumors [5]; 4 h post injection, n = 3): 3.88± 0.36 % IA/g
- intestines uptake (A549 xenograft tumors [5]; 24 h post injection): 0.55 ± 0.29 % IA/g
- kidneys uptake (A549 xenograft tumors [5]; 24 h post injection): 3.11 ± 0.52 % IA/g
- liver uptake (A549 xenograft tumors [5]; 24 h post injection): 3.55 ± 1.17 % IA/g
- pancreas uptake (A549 xenograft tumors [5]; 24 h post injection): 0.26 ± 0.04 % IA/g
- tumor to blood (T/B) ratio (A549 xenograft tumors [5]; 24 h post injection): 10.19
- tumor to kidneys ratio (A549 xenograft tumors [5]; 24 h post injection): 0.48
- tumor to liver ratio (A549 xenograft tumors [5]; 24 h post injection): 0.47
- tumor to muscle (T/M) ratio (A549 xenograft tumors [5]; 24 h post injection): 15.72
- tumor/intestines ratio (A549 xenograft tumors [5]; 24 h post injection): 2.76
- tumor/lungs ratio (A549 xenograft tumors [5]; 24 h post injection): 2.02
- tumor/pancreas ratio (A549 xenograft tumors [5]; 24 h post injection): 5.85
- tumor uptake (A549 xenograft tumors [5]; 24 h post injection, n = 3): 1.52 ± 0.71 % IA/g
- accumulated radiotracer still retained in tumor tissue (A549 xenograft tumors [5]; 24 h post-injection relative to 4 h): 65%
- decrease of the signal over 24 h (A549 xenograft tumors [5]; intestines, lungs, and pancreas, from 4 h to 24 h): more than 73%
- difference in radioactivity in organs and tumors between normal and blocked groups (A549 xenograft tumors [6]; 4 h post injection): no significant differences
- tumor uptake, blocked group (A549 xenograft tumors [6]; 24 h post injection, with 50-fold molar excess of unlabeled IP-001, n = 3): 0.84 ± 0.33 % IA/g
- lower uptake in the tumor tissue in the blocking setting (A549 xenograft tumors [6]; blocked versus experimental group, 24 h): 45%
Structure (SMILES): CC(C)(C)C(=O)CN1C(=O)C(NC(=O)Nc2cccc(C(=O)NCCCCCCNC(=O)CCC(=O)NCCCOCCOCCOCCCNC(=O)CN3CCN(CC(=O)[O-])CCN(CC(=O)[O-])CCN(CC(=O)[O-])CC3)c2)CN(C2CCCCC2)c2ccccc21.[111In+3] (stereo not shown) [[^111In]In-IP-001]
- maximal accumulation (percent of the added radioactivity per million cells) (A549 cells; 2 MBq, 4 h of incubation): around 5%
- incubation time of maximal accumulation (A549 cells; incubation up to 24 h): 4 h
